Measured values reported in publication PMC10931676 (International Journal of Molecular Sciences, 2024).
Like-named read-outs stand apart in the source and are kept apart here.

Experiment: Permeability and efflux ratio in Caco-2 cells
Type: in vitro ADME
Settings: human; for recovery at 120 min, 10 µM: Caco-2, Caco-2, 10 µM
Method: Human colon carcinoma (Caco-2) cells, which were obtained from Military Medical Research Institute, were maintained in Dulbecco’s modified Eagle’s medium. Caco-2 cells were seeded onto […] (PET) in 96-well Falcon insert systems at 2 × 10^5 cells/cm^2 for 21–28 days for confluent cell monolayer formation. […] Test compounds were diluted with the transport buffer (HBSS without BSA) from a 10 mM stock solution to a concentration of 10 µM and applied to the apical or basolateral side of the cell monolayer. Permeation of the test compounds in the direction from A to B or from B to A was determined in duplicate over a 120-min incubation at 37 °C and 5% CO2 with a relative humidity of 95%. In addition, the efflux ratio of each compound was also determined. Test and reference compounds were quantified by LC-MS/MS analysis based on the peak area ratio of analyte/IS. The apparent permeability coefficient Papp (cm/s) was calculated using the following equation:Papp = (dCr/dt) × Vr/(A × C0) where dCr/dt is the cumulative concentration of the compound in the receiver chamber as a function of time (S); Vr is the solution volume in the receiver chamber (0.1 mL on the apical side, 0.25 mL on the basolateral side); A is the surface area for the transport, i.e., 0.0804 cm^2 for the area of the monolayer; C0 is the initial concentration in the donor chamber. […] Cd and Cr are the final concentrations of transport compound in donor and receiver chambers, respectively. Cc is the compound concentration in the cell lysate solution. Vc is the volume of insert well (0.1 mL in this assay).

[1] = Caco-2, 10 µM, 120-min incubation, 37 °C

recovery at 120 min, 10 µM (read-out: Mean Recovery % B to A) [%]	Papp A→B at 120 min, 10 µM [1] [×10⁻⁶ cm/s]	Papp B→A at 120 min, 10 µM [1] [×10⁻⁶ cm/s]	recovery at 120 min, 10 µM (read-out: Mean Recovery % A to B) [%]	Compound
95.3	0.65	14.6		C[C@H]1O[C@@H](O[C@H]2[C@@H](O)C[C@H](O[C@H]3[C@@H](O)C[C@H](O[C@H]4CC[C@@]5(C)[C@H](CC[C@@H]6[C@@H]5C[C@@H](O)[C@]5(C)[C@@H](C7=CC(=O)OC7)CC[C@]65O)C4)O[C@@H]3C)O[C@@H]2C)C[C@H](O)[C@@H]1O [Digoxin]
	29.4		81	CC(C)NCC(O)COc1cccc2ccccc12 (centres unmarked) [Propranolol]
